Data: patent US20250041204A1, “COMPOSITION COMPRISING LACTOBACILLUS CRISPATUS BACTERIAL LYSATES AND/OR BACTERIA FOR IMPROVING SKIN CONDITION” (BIOTIX PTE LTD, priority 2021, published 2025)

Assays:
[1] = test system: primary adult keratinocytes (NHEK); assay: In vitro irritation model (SDS, MTT survival); assay type: cell-based; conditions: for protection of keratinocytes from SDS induced cell damage: in vitro irritant test, comparison of active principles
Protocol: Next, the functional effects of L. Crispatus in keratinocytes was investigated using an in vitro irritation model using primary adult keratinocytes (NHEK).
Primary keratinocytes from passage 2 to 3 were cultured in 96 well plates at a seed concentration of 7,000 cells/well and cultured in complete keratinocyte medium. […] After 2 hours pre incubation, cells were treated with SDS. 2 hours later MTT was added to the culture and incubated for further 2 hours for a total incubation time of 6 hours. After incubation, the MTT assay was developed according to manufacturing instruction and O.D was measured in a 96 well plate reader to determine the survival rate of the keratinocytes.

[2] = test system: skin of healthy volunteers; assay: Skin irritant test in healthy volunteers (occlusive plaster on forearm); assay type: in vivo, human; conditions: SDS 4% in PBS alone, 24 hours occlusion
Protocol: The same amount of each solution was applied to a plaster with a dimension of 1 cm^2. The plasters containing the solutions were then applied on the forearm of healthy donors in occlusion to increase penetration of the solution into the skin. 24 hours after application, the plasters were removed, pictures were recorded and irritation was evaluated by blinded dermatologists.

Compound | protection of keratinocytes from SDS induced cell damage [1] | skin inflammation (erythema and immune cell infiltration) [2] | survival rate ([1]; SDS alone, 6 to 8 hours incubation, MTT)
CC(C)(CO)[C@@H](O)C(=O)NCCCO [Panthenol] | not any other active principle protected | – | –
CCCCCCCCCCCCOS(=O)(=O)[O-].[Na+] [SDS] | – | induced skin inflammation in all the individuals | 0%
Ceramides | not any other active principle protected | – | –
